Laboratory results from patent publication US20250276972A1, “COMPOUNDS AS CASEIN KINASE INHIBITORS” (GRITSCIENCE BIOPHARMACEUTICALS CO.,LTD., priority 2020, published 2025).

Assays:
CK1δ = biological target: T1, CK1δ (Homo sapiens, UniProt P48730); experiment: CK1δ inhibition (EC50); Bmal1-dLuc or Per2-dLuc U2OS luminescence rhythm period assay; format: cell-based; settings: Table 3
T1 construct: endogenous in cells; host or cells: Bmal1-dLuc or Per2-dLuc U2OS cells

wild type CK1δ = wild type CK1δ (Homo sapiens, UniProt P48730); experiment: CK1δ kinase assay (Kinase-Glo); format: biochemical; settings: 10 μM ATP, 2 nM wild type CK1δ, 85 min at 25° C.
wild type CK1δ, sequence (P48730 whole entry): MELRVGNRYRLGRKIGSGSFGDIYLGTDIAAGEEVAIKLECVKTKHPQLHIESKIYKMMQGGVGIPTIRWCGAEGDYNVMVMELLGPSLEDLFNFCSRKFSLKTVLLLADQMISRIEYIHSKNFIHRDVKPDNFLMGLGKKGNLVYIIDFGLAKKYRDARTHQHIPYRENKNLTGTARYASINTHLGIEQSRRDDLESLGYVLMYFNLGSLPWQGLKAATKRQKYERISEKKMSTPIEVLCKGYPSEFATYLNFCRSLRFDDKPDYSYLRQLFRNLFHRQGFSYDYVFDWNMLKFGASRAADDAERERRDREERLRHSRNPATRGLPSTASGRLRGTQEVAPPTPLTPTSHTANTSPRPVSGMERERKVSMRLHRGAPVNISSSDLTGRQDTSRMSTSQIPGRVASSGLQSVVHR
Procedure: The reaction mixture was incubated for 85 min at 25° C.; detection was carried out as described for the Kinase-Glo Assay (Promega). Luminescent output was measured on the Perkin Elmer Envision plate reader (PerkinElmer, Waltham, MA).

[1] = Intrinsic clearance in liver microsomes (mouse); format: in vitro ADME; settings: Mouse liver microsomes 0.5 mg/mL, 2 μM compound, 37° C.
Procedure: (§1) • 1. The master solution was prepared according to Table 5.
(§2) • 2. Three separated experiments were performed as follows. a) With NADPH: 10 μL of 20 mg/mL liver microsomes and 40 μL of 10 mM NADPH were added to the incubations. The final concentrations of microsomes and NADPH were 0.5 mg/mL and 1 mM, respectively. b) Without NADPH: 10 μL of 20 mg/mL liver microsomes and 40 μL of ultra-pure H2O were added to the incubations. The final concentration of microsomes was 0.5 mg/mL. c) Heat-inactivated microsomes without NADPH: 10 μL of 20 mg/mL heat-inactivated liver microsomes and 40 μL of ultra-pure H2O were added to the incubations. The final concentration of microsomes was 0.5 mg/mL. • 3. The reaction was started with the addition of 4 μL of 200 μM test compound solution or control compound solution at the final concentration of 2 μM and carried out at 37° C. • 4. Aliquots of 50 μL were taken from the reaction solution at 0, 15, 30, 45 and 60 min. […] Samples were centrifuged at 3, 220 g for 40 minutes. […] Data Analysis
(§3) Peak areas were determined from extracted ion chromatograms. The slope value, k, was determined by linear regression of the natural logarithm of the remaining percentage of the parent drug vs. incubation time curve.
(§4) The in vitro half-life (in vitro t1/2) was determined from the slope value:
(§5) Conversion of the in vitro t1/2 (min) into the in vitro intrinsic clearance (in vitro CLint, in μL/min/mg protein) was done using the following equation (mean of duplicate determinations): […]

in vitro = settings: human, Caco-2, pH 7.4
Procedure: Cells were cultivated for 14-18 days in a cell culture incubator at 37° C., 5% CO2, 95% relative humidity. Cell culture medium was replaced every other day, beginning no later than 24 hours after initial plating.
10 mM stock solutions of test compounds were prepared in DMSO. The stock solutions of positive controls were prepared in DMSO at the concentration of 10 mM.
125 μL of 5 μM working solution of control compound and test compounds were added to the Transwell insert (apical compartment), and transfer 50 μL sample (DO sample) immediately from the apical compartment to a new 96-well plate. […] 285 μL of 5 μM working solution of control compound and test compounds were to the receiver plate wells (basolateral compartment), and transfer 50 μL sample (DO sample) immediately from the basolateral compartment to a new 96-well plate. Fill the wells in the Transwell insert (apical compartment) with 75 μL of HBSS (10 mM HEPES, pH 7.4). […] Samples were Vortexed for 5 minutes and then centrifuged at 3,220 g for 40 minutes. […] 100 μL of the Lucifer yellow solution was added to each Transwell insert (apical compartment), followed by filling the wells in the receiver plate (basolateral compartment) with 300 μL of HBSS (10 mM HEPES, pH 7.4). The plates were Incubated at 37° C. for 30 mins. 80 μL samples were removed directly from the apical and basolateral wells (using the basolateral access holes) and transferred to wells of new 96 wells plates. The Lucifer Yellow fluorescence (to monitor monolayer integrity) signal was measured in a fluorescence plate reader at 485 nm excitation and 530 nm emission.
The apparent permeability coefficient (Papp), in units of centimeter per second, can be calculated for Caco-2 drug transport assays using the following equation: […]

[2] = Intrinsic clearance in liver microsomes (human); format: in vitro ADME; settings: Human liver microsomes 0.5 mg/mL, 2 μM compound, 37° C.
Procedure: as §1, §2, §3, §4, §5

[3] = read-out: in vitro CLint (μL/min/mg protein)

T1 sequence (P48730 whole entry): as above

EC50 (CK1δ)	IC50 (wild type CK1δ)	microsomal CLint at 2 μM [1, 3]	half-life at 2 μM ([1]; read-out: in vitro t1/2)	Papp A→B at 2 h, 5 μM (in vitro)	Papp B→A at 2 h, 5 μM (in vitro)	efflux ratio at 2 h, 5 μM (in vitro)	microsomal CLint at 2 μM [2, 3]	half-life at 2 μM ([2]; read-out: in vitro t1/2)	Structure (SMILES)
0.4 µM	0.364 µM								CS(=O)(=O)N1CCn2nc(-c3ccc(F)cc3)c(-c3ccnc(N)n3)c2C1 [Compound I-21, 4-(2-(4-fluorophenyl)-5-(methylsulfonyl)-4,5,6,7-tetrahydropyrazolo[1,5-a]pyrazin-3-yl)pyrimidin-2-amine.]
0.3 µM	0.0374 µM								COc1ccc(/C=C/C(=O)Nc2cc(-c3c(-c4ccc(F)cc4)nn4c3CN(C(C)=O)CC4)ccn2)c(OC)c1 [Compound I-69, (E)-N-(4-(5-acetyl-2-(4-fluorophonyl)-4,5,6,7-tetrahydropyrazolo[1,5-a]pyrazin-3-yl)pyridin-2-yl)-3-(2,4-dimethoxyphenyl) acrylamide]
0.2 µM		35.1 µL/min/mg	0.658 h	8.8 nm/s	224 nm/s	25.4	13.5 µL/min/mg	1.71 h	CC(=O)Nc1cc(-c2c(-c3ccc(F)cc3)nn3c2CN(CCN(C)C)CC3)ccn1 [Compound I-50, N-(4-(5-(2-(dimethylamino)ethyl)-2-(4-fluorophenyl)-4,5,6,7-tetrahydropyrazolo [1,5-a]pyrazin-3-yl)pyridin-2-yl)acetamide]
